Reference: ChEMBL document CHEMBL1201862, “PubChem BioAssay data set” (2004)
The source made the active and inactive calls.

Key:
[1] = A549 cell cytotoxicity, dose response, cytotoxicity control, plate reader, cherry-pick, antagonist series (AID 743412); assay type: functional, cell-based
[2] = LGR2 antagonists, dose response, cell-based, HEK293, CRE-luciferase reporter, cherry pick, set 2 (AID 743343); assay type: functional;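 also: transfected cells were stimulated with diluted bursicon conditioned medium after compound addition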
[3] = MC4R antagonists, dose response, counter-screen for LGR2 antagonist project, cell-based, plate reader, cherry pick (AID 743444); assay type: functional;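 also: transfected HEK 293 cells stimulated with alpha-MSH peptide; potency of inhibitors of the alpha-MSH evoked signal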
[4] = P. falciparum 3D7-ScDHODH growth inhibitors, dose response, SYBR Green, dry powder samples (AID 1159570); assay type: functional, cell-based;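 also: parasite growth measured after 72 hours of compound exposure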
[5] = HepG2 cell cytotoxicity, dose response, cytotoxicity control, plate reader, dry powder samples (AID 1159569); assay type: functional, cell-based;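 also: inhibitor potency with signal falling toward the positive control level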
[6] = P. falciparum Dd2 growth inhibitors, dose response, SYBR Green, dry powder samples, set 9 (AID 1159568); assay type: functional, cell-based
[7] = P. falciparum Dd2 growth inhibitors, dose response, SYBR Green, cherry-picked samples (AID 1159567); assay type: functional, cell-based
[8] = P. falciparum Dd2 growth inhibitors, dose response, SYBR Green, dry powder samples (AID 1159566); assay type: functional, cell-based;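 also: potency for growth inhibition with lower SYBR green DNA signal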
[9] = P. falciparum ATP4 D1247Y mutant growth inhibitors, dose response, NITD609-resistant line, SYBR Green, dry powder (AID 1159571); assay type: functional, cell-based;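 also: parasites synchronized at ring stage by sorbitol before testing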
[10] = target: Kallikrein-7 (Homo sapiens, UniProt P49862); assay: Fluorescence Intensity-based biochemical primary high throughput dose response assay to identify activators of kallikrein-7 (K7) zymogen.
Sequence of Kallikrein-7 (P49862 whole entry): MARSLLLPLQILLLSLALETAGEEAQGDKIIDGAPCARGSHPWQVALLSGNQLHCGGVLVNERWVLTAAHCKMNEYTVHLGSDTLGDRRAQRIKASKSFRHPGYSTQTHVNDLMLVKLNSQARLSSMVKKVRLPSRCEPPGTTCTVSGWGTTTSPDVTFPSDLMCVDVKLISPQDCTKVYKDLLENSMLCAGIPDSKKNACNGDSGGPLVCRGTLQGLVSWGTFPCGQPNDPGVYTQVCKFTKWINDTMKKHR

[11] = target: G-protein coupled receptor 183 (Homo sapiens, UniProt P32249); assay: SAR confirmation of small molecule antagonists of the EBI2 receptor via a luminescent beta-arrestin assa.; assay type: functional
Sequence of G-protein coupled receptor 183 (P32249 whole entry): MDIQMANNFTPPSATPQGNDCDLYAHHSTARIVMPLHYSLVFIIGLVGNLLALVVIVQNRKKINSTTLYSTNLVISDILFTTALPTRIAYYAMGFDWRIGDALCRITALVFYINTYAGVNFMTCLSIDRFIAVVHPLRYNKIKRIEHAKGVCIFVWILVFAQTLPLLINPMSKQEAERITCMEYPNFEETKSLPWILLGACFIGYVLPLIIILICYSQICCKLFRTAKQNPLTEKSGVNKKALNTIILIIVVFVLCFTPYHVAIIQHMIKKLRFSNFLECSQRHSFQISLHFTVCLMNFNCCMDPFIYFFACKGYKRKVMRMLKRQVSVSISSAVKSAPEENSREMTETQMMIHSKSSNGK

[12] = inhibitors of PGC1a acetylation in cells, dose response, cell-based, cherry-picked samples (AID 720514); assay type: functional;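 also: potency may reflect raised or lowered acetylation signal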
[13] = target: T1, Caspase-3 (Homo sapiens, UniProt P42574); assay type: functional;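 also: Dose-response selectivity test against caspase-3 for candidate inhibitors of sentrin-specific proteases (SENPs)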
T1 sequence (P42574 whole entry): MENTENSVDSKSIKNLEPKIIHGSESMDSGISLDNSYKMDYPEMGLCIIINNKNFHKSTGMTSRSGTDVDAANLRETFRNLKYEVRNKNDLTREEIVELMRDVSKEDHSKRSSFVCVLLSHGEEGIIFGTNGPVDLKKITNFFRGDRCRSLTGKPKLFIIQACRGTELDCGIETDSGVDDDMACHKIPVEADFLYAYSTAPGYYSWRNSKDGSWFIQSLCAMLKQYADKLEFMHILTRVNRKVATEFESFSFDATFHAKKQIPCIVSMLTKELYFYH

[14] = target: T2, Sentrin-specific protease 7 (Homo sapiens, UniProt Q9BQF6); assay type: functional;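 also: Luminescence-based dose-response confirmation of ultra-high-throughput screening hits, measuring inhibition of SENP7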
T2 sequence (Q9BQF6 whole entry): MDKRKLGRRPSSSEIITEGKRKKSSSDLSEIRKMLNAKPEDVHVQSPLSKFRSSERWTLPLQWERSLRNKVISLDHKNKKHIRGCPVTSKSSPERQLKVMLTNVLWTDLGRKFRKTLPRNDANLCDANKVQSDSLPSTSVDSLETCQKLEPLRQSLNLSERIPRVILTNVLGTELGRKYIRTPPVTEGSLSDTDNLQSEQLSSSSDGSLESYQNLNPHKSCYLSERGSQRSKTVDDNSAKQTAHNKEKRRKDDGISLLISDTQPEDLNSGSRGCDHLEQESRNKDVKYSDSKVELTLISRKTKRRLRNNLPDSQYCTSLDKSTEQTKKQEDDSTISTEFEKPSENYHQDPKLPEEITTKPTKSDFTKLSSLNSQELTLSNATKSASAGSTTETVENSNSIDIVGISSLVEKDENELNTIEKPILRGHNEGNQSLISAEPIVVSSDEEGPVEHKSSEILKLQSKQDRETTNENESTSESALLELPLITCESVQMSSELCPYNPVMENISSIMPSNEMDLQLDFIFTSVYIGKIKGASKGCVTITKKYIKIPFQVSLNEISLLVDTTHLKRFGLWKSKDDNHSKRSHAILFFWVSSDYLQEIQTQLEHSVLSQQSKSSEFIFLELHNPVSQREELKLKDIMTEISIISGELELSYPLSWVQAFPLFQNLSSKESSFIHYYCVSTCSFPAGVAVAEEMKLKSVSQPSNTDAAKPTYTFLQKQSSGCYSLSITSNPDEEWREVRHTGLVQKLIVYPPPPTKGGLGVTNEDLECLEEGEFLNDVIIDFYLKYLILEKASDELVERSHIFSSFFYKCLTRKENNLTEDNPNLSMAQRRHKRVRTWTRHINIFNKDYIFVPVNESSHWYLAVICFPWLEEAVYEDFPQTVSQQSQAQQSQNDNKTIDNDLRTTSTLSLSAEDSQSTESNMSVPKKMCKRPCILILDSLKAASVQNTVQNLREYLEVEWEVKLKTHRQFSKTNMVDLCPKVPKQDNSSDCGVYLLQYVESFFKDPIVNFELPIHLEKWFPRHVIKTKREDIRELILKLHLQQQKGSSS

[15] = target: T3, Sentrin-specific protease 6 (Homo sapiens, UniProt Q9GZR1); assay type: functional;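 also: Luminescence-based dose-response confirmatory assay of SENP6 inhibition, following up an ultra-high-throughput screen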
T3 sequence (Q9GZR1 whole entry): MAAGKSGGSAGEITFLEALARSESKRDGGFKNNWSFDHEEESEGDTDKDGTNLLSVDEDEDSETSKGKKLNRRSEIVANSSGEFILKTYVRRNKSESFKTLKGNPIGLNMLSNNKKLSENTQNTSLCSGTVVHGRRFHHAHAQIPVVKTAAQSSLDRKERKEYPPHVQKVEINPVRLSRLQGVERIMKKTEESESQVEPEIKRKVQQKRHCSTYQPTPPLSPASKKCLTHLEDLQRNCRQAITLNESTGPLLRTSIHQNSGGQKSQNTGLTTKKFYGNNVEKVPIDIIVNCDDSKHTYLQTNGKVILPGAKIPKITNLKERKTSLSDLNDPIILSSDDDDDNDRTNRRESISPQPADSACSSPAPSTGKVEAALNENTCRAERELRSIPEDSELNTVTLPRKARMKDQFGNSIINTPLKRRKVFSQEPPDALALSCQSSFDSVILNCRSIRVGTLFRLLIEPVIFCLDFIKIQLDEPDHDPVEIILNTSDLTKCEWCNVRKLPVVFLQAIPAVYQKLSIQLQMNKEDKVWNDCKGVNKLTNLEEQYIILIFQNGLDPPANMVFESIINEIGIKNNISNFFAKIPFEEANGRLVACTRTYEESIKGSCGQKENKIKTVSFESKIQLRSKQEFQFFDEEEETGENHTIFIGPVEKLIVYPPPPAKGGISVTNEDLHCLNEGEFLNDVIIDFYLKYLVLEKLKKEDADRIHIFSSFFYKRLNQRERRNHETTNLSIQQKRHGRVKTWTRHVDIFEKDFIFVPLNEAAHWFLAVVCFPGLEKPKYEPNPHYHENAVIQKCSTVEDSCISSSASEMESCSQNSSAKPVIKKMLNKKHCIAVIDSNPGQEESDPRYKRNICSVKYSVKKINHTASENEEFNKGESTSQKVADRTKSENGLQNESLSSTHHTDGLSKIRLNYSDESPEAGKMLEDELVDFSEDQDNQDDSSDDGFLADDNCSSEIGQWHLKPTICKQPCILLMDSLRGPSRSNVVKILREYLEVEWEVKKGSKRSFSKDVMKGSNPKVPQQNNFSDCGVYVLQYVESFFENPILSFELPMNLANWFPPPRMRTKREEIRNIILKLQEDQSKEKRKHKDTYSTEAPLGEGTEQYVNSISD

[16] = target: T4, Sentrin-specific protease 8 (Homo sapiens, UniProt Q96LD8); assay type: functional;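 also: luminescence read-out of SENP8 inhibition, dose-response confirmation following an ultra-high-throughput screen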
T4 sequence (Q96LD8 whole entry): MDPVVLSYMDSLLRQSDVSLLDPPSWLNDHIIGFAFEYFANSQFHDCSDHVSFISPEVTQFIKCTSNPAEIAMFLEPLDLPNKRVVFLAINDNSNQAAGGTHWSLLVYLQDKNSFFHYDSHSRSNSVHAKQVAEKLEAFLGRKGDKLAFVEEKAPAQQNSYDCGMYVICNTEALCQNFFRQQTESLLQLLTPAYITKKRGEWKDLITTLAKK

[17] = target: T5, Oxysterols receptor LXR-beta (Homo sapiens, UniProt P55055); assay type: functional, cell-based;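 also: Cell-based luminescence dose-response assay of agonist activity at LXR, run as a confirmatory counterscreen to a daf-12 agonist screen; HEK293 cells with Gal4-LXR fusion and GAL4-driven luciferase reporter; agonist potency from rising luciferase signal of a Gal4-LXR reporter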
T5 sequence (P55055 whole entry): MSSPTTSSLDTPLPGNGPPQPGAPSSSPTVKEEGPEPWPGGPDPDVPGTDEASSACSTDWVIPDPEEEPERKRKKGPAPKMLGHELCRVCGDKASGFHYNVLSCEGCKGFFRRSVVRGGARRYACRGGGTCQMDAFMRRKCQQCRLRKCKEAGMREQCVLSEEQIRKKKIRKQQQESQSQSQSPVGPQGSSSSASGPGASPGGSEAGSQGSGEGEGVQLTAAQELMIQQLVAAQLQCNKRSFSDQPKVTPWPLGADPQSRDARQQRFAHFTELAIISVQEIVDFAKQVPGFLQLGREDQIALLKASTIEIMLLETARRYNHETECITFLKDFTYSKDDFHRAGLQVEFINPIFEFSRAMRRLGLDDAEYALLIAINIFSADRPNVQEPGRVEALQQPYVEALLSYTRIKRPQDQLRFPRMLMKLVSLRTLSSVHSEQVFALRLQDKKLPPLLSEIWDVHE

[18] = cells
[19] = test system: Streptococcus sp. 'group A'; assay: growth inhibition of control SK(-) GAS strain, dose response, counter-screen for streptokinase expression inhibitor project, luminescence, kanamycin, BacTiterGlo, confirmation (AID 1900); assay type: functional, organism-based
[20] = target: T6, Streptokinase A (Streptococcus pyogenes serotype M1, UniProt P10520); assay: S. pyogenes streptokinase expression inhibitors, potency, dose response, plasminogen activation absorbance, OD405 (AID 1914); assay type: functional, Streptococcus pyogenes M1 GAS;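 also: secreted streptokinase activity via plasminogen activation per viability signal from cell pellet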
T6 sequence (P10520 whole entry): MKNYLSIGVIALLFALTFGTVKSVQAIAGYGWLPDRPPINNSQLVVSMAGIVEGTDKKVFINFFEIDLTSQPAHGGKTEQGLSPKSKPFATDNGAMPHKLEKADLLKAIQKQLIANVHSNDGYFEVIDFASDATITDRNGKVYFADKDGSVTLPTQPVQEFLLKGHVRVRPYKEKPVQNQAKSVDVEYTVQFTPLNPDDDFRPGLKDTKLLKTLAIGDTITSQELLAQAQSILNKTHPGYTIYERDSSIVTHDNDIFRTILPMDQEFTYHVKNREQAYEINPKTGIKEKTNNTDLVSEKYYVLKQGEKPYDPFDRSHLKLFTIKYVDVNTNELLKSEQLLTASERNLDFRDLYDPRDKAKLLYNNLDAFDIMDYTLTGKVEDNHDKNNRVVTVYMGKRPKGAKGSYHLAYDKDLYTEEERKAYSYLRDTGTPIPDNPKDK

[21] = test system: Streptococcus; assay: Group A Streptococcus viability loss, dose response, counter-screen for streptokinase expression inhibitor project, luminescence, BacTiterGlo (AID 1915); assay type: functional, organism-based;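 also: potency for reduction of bacterial viability or growth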
[22] = P. falciparum late gametocyte killing, dose response, luminescence (AID 1117278); assay type: functional, cell-based;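 also: gametocytes exposed to compound for 24 hours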
[23] = Jurkat T cell cytotoxicity, dose response, cytotoxicity control for P. falciparum gametocyte viability project, luminescence (AID 1117277); assay type: functional, cell-based;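 also: potency reflects loss of cellular ATP meaning fewer viable cells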
[24] = target: Paired box protein Pax-8 (Homo sapiens, UniProt Q06710); assay: inhibitors of PAX8-driven TPO luciferase reporter, dose response, RMG-I cells, cherry-pick (AID 687027); assay type: functional, cell-based;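 also: luciferase reporter driven by Pax8 target thyroperoxidase promoter measured by SteadyGlo luminescence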
Sequence of Paired box protein Pax-8 (Q06710 whole entry): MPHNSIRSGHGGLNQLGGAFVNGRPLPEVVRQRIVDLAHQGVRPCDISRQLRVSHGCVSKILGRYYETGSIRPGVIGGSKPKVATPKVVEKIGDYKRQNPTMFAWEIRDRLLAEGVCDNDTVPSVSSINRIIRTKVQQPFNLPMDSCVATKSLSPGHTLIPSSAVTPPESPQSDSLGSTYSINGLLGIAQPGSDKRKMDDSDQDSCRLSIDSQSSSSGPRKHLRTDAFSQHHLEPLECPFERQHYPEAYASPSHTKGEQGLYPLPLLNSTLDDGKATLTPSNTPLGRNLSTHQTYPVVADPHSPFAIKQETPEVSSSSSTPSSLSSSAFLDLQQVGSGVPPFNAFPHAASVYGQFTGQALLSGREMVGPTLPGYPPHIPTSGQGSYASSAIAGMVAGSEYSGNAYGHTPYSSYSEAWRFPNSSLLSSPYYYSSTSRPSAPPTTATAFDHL

[25] = NIH:OVCAR-3 ovarian cancer cell cytotoxicity, dose response, PAX8 inhibitor project, plate reader, dry powder samples (AID 743044); assay type: functional, cell-based
[26] = cytotoxicity in OVCAR8 ovarian cancer cells, dose response, PAX8 project, cell-based, plate reader, dry powder samples (AID 743197); assay type: functional; conditions: OVCAR-8

In the case of C[C@H](CO)N1C[C@H](C)[C@H](CN(C)S(=O)(=O)c2ccc(C(F)(F)F)cc2)OCc2ccccc2-c2c(n(C)c3ccccc23)C1=O, the AC50 [1] is reported as 19.8 µM (active), the AC50 [2] is reported as 27.3 µM (active) and the AC50 [3] is reported as 28.9 µM (active). For the same compound, the AC50 [4] was 0.155 µM (active), the AC50 [5] was 25.7 µM (active) and the AC50 [6] was 0.293 µM (active). The AC50 [7] was 0.427 µM (active), the AC50 [8] was 0.117 µM (active) and the AC50 [9] was 0.152 µM (active).

In the case of CCOC(=O)N1CCC2(CC1)CC(=O)c1c(ccc3oc(C(=O)O)c(C)c13)O2, the EC50 [10] is reported as 97.5 µM (inactive).

For Cc1ccc(C(=O)N2CCN(C(=O)/C=C/c3ccc(Br)cc3)CC2)cc1, the IC50 [11] was 0.00102 µM (active).

For O=C1Nc2ccccc2N=C(c2ccccc2)C1N(Cc1ccc(F)cc1)C(=O)c1cccnc1 (configuration not stated), the AC50 [12] was 36.7 µM (active).

With CN(C)CCNS(=O)(=O)c1ccc2c3c(cccc13)C(=O)N2 the EC50 [10] was 1.83 µM (active).

With O=C(/C=C/c1ccc(F)cc1)N1CCN(S(=O)(=O)c2ccccc2Br)CC1 the IC50 [11] was 0.00801 µM (active).

With CCOC(=O)/C(=N\Nc1ncnc2ccccc12)c1ccc(C)cc1 the IC50 [13] was 32.9 µM (active), the IC50 [14] was 6.78 µM (active) and the IC50 [15] was 11.7 µM (active). For the same compound, the IC50 [16] was 13.4 µM (active), the EC50 [17] was > 67.6 µM (inactive) and the EC50 [18] was > 67.6 µM (inactive).

In the case of Cc1ccc(C)n1-c1sc2c(c1C#N)CCC(C)C2 (configuration not stated), the EC50 [19] is reported as 7.14 µM (active), the EC50 [20] is reported as 14.6 µM (active) and the EC50 [21] is reported as > 150 µM (not active). The IC50 [22] was > 109 µM (inactive) and the IC50 [23] was > 83.3 µM (inactive).

For C[C@@H]1CN([C@H](C)CO)C(=O)c2cccc(NC(=O)c3ccc(-c4nccs4)cc3)c2O[C@@H]1CN(C)C(=O)Nc1ccc(C(F)(F)F)cc1, the AC50 [6] was 0.886 µM (active).

With Cc1ccc(S(=O)(=O)N(C)C[C@@H]2Oc3cc(C#Cc4ccncc4)ccc3S(=O)(=O)N([C@H](C)CO)C[C@H]2C)cc1 the AC50 [24] was 3.3 µM (active), the AC50 [12] was 3.54 µM (active) and the AC50 [25] was 3.13 µM (active). The AC50 [26] was > 70 µM (inactive).

In the case of COc1cc(CCC(C)=O)ccc1OC(=O)c1c(F)cccc1Cl, the IC50 [22] is reported as > 109 µM (inactive) and the IC50 [23] is reported as > 83.2 µM (inactive).
